Test results as given in patent US20100035926A1, “PYRAZOLE DERIVATIVES AS NON-STEROIDAL GLUCOCORTICOID RECEPTOR LIGANDS” (priority 2006, published 2010).
Read-outs that look alike come from different tables or passages of the source.

Key:
GR [1] = target: T1, GR (Homo sapiens, UniProt P04150); assay: GR Agonist Assay - MMTV Assay (A549 MMTV cells, renilla luciferase reporter); type: cell-based; details: 6 h, agonists, read-out: average maximum asymptote in the MMTV agonist assay
T1 construct: endogenous in cells; host or cells: A549 (human lung carcinoma, ECACC No. 86012804), stably transfected with reporter plasmids only
T1 sequence (P04150 1-777): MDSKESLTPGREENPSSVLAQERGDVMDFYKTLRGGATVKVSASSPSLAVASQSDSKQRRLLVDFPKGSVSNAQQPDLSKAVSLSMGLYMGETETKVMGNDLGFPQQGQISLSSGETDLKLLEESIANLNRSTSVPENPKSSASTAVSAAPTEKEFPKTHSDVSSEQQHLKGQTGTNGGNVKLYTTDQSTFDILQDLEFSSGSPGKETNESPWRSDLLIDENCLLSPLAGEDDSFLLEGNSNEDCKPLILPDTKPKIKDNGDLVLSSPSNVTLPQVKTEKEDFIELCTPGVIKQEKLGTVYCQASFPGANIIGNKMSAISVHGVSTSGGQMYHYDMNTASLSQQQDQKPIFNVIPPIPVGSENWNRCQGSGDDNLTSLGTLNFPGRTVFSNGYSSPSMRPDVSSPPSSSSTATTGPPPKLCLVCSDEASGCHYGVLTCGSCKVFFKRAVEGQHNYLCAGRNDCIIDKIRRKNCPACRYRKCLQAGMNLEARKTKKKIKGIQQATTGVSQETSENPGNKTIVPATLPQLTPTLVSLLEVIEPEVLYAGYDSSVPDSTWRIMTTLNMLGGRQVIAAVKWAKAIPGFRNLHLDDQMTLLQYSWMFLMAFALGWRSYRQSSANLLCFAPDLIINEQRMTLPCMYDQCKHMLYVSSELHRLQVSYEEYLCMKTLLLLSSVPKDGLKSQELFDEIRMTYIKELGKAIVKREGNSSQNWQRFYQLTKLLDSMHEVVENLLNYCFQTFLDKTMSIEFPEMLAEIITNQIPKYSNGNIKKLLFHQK
Protocol: (§1) Stimulation of the cell line with GR agonists results in intracellular signal transduction and ultimately translocation of GR into the nucleus. This activates the inserted DNA sequence resulting in transcription of the integrated luciferase gene, which is quantified using a light emission. The stably transfected cell line was grown as a monolayer in DMEM supplemented with FCS-HI (10%), Non-essential amino acids (1%), L-Glutamine (2 mM), Pen/Strep (1%) and Geneticin (50 mg/ml).
A 90% confluent T175 flask of A549 MMTV cells was harvested by centrifugation for 5 min at 200 g, resuspended in assay buffer (DMEM supplemented with 10% FCS 2×HI, 2 mM Glutamax, Non essential amino acids and 25 mM HEPES) and diluted to 0.1×10^6/ml. 70 μl of cell solution was dispensed to each well of white Nunc 384-well plates, containing compound at the required concentration. […] The plates were covered to protect the reagents from light, and then incubated at room temperature for approximately 15 mins before reading them on a Viewlux.

GR [2] = target: T1, GR; assay: GR Functional Assay - NFκB Assay (A549 SPAP cells, TNFα stimulated); type: cell-based; details: for Emax: agonists, read-out: average maximum asymptote in the NFkB assay
Protocol: as §1, with “TNFα” for “GR agonists”, “NFκB” for “GR”, “SPAP” for “luciferase”, “calorimetric assay. […]” for “light emission.”
A 70% confluent T225 flask of A549 SPAP cells was harvested by centrifugation for 5 mins at 200 g, resuspended in assay buffer (DMEM supplemented with 10% FCS 2×HI, 2 mM L-Glutamine, 1% Pen/Strep and Non essential amino acids) and diluted to 0.16×10^6/ml. 60 μl of cell solution was dispensed to each well of clear Nunc 384-well plates, containing compound at the required concentration. […] Plates were equilibrated to room temperature for 1 hr prior to the addition of 25 μl of pNPP buffer (1M Diethanolamine pH 9.8, 0.5 mM MgCl2, 0.28M NaCl, 2 mg/ml pNPP) to each well of assay plates.

glucocorticoid receptor = target: T2, glucocorticoid receptor (Homo sapiens, UniProt P04150); assay: Glucocorticoid Receptor Binding Assay (fluorescence polarisation, displacement of Alexa 555 labelled dexamethasone derivative); details: at least once in this assay; read-out: glucocorticoid binding pIC50 (converted)
T2 construct: a partially purified full length glucocorticoid receptor
T2 sequence (P04150 1-777): T1 sequence (P04150 1-777)
Protocol: Compounds were solvated and diluted in DMSO, and transferred directly into assay plates. Fluorescent dexamethasone and a partially purified full length glucocorticoid receptor were added to the plates, together with buffer components to stabilise the GR protein and incubated at room temperature for 2 hr in the dark. Binding of each compound was assessed by analysing the displacement of fluorescent ligand by measuring the decrease in fluorescence polarisation signal from the mixture.

[3] = at least once, examples listed as agonists in NFkB and MMTV assays, read-out: potency pIC50 in the NFKB assay (converted)
[4] = at least once in the NFkB assay, A549 SPAP cells, read-out: pIC50 in the NFkB assay (converted)

SMILES	Emax (GR [1])	Emax (GR [2]; A549 SPAP cells)	IC50 (GR [2]; [3])	IC50 (glucocorticoid receptor)	IC50 (GR [2]; [4])
Nc1c(C(=O)NCC(O)(CN(CCF)C(=O)c2ccccc2C(F)(F)F)C(F)(F)F)cnn1-c1ccc(F)cc1 (racemic) [Example 10 (racemic), 5-amino-1-(4-fluorophenyl)-N-{3,3,3-trifluoro-2-[((2-fluoroethyl){[2-(trifluoromethyl)phenyl]carbonyl}amino)methyl]-2-hydroxypropyl}-1H-pyrazole-4-carboxamide]	≥ 40%	≥ 40%	< 316 nM	< 1000 nM	–
Nc1c(C(=O)NCC(O)(CN(CCF)C(=O)c2ccccc2OC(F)F)C(F)(F)F)cnn1-c1ccc(F)cc1 (racemic) [Example 11 (racemic), 5-amino-N-(2-{[({2-[(difluoromethyl)oxy]phenyl}carbonyl) (2-fluoroethyl)amino]methyl}-3,3,3-trifluoro-2-hydroxypropyl)-1-(4-fluorophenyl)-1H-pyrazole-4-carboxamide]	≥ 40%	≥ 40%	< 316 nM	–	–
CCN(CC(O)(CNC(=O)c1cnn(-c2ccc(F)cc2)c1N)C(F)(F)F)C(=O)c1ccccc1OC(F)F (racemic) [Example 12 (racemic), 5-amino-N-(2-{[({2-[(difluoromethyl)oxy]phenyl}carbonyl) (ethyl)amino]methyl}-3,3,3-trifluoro-2-hydroxypropyl)-1-(4-fluorophenyl)-1H-pyrazole-4-carboxamide]	≥ 40%	≥ 40%	< 316 nM	< 1000 nM	–
CCN(CC(O)(CNC(=O)c1cnn(-c2ccc(F)cc2)c1N)C(F)(F)F)C(=O)c1ccccc1C(C)=O (racemic) [Example 13 (racemic), N-(2-{[[(2-acetylphenyl)car-bonyl](ethyl)amino]methyl}-3,3,3-trifluoro-2-hydroxypropyl)-5-amino-1-(4-fluorophenyl)-1H-pyrazole-4-carboxamide]	≥ 40%	≥ 40%	< 316 nM	< 1000 nM	–
CCN(CC(O)(CNC(=O)c1cnn(-c2ccc(F)cc2)c1N)C(F)(F)F)C(=O)c1cccc(Cl)c1 (racemic) [Example 17 (racemic), 5-amino-N-(2-{[[(3-chlorophenyl)car-bonyl](ethyl)amino]methyl}-3,3,3-trifluoro-2-hydroxypropyl)-1-(4-fluorophenyl)-1H-pyrazole-4-carboxamide]	≥ 40%	≥ 40%	< 316 nM	< 1000 nM	< 1000 nM
CCN(CC(O)(CNC(=O)c1cnn(-c2ccc(F)cc2)c1N)C(F)(F)F)C(=O)c1ccc(Cl)cc1 (racemic) [Example 19 (racemic), 5-amino-N-(2-{[[(4-chlorophenyl)car-bonyl](ethyl)amino]methyl}-3,3,3-trifluoro-2-hydroxypropyl)-1-(4-fluorophenyl)-1H-pyrazole-4-carboxamide]	–	–	–	< 1000 nM	–
CCN(CC(O)(CNC(=O)c1cnn(-c2ccc(F)cc2)c1N)C(F)(F)F)C(=O)c1ccc(F)c(F)c1 (racemic) [Example 21 (racemic), 5-amino-N-(2-{[[(3,4-difiuorophenyl)car-bonyl](ethyl)amino]methyl}-3,3,3-trifluoro-2-hydroxypropyl)-1-(4-fluorophenyl)-1H-pyrazole-4-carboxamide]	–	–	–	< 1000 nM	< 1000 nM
CCN(CC(O)(CNC(=O)c1cnn(-c2ccc(F)cc2)c1N)C(F)(F)F)C(=O)c1cccc(C(C)=O)c1 (racemic) [Example 22 (racemic), N-(2-{[[(3-acetylphenyl)car-bonyl](ethyl)amino]methyl}-3,3,3-trifluoro-2-hydroxypropyl)-5-amino-1-(4-fluorophenyl)-1H-pyrazole-4-carboxamide]	–	–	–	< 1000 nM	–
CN(CC(O)(CNC(=O)c1cnn(-c2ccc(F)cc2)c1N)C(F)(F)F)C(=O)c1ccccc1 (racemic) [Example 25 (racemic), 5-amino-1-(4-fluorophenyl)-N-(3,3,3-trifluoro-2-hydroxy-2-{[methyl(phenylcarbonyl)amino]methyl}propyl)-1H-pyrazole-4-carboxamide]	–	–	–	< 1000 nM	< 1000 nM
CN(CC(O)(CNC(=O)c1cnn(-c2ccc(F)cc2)c1N)C(F)(F)F)C(=O)c1cccc(C(F)(F)F)c1 (racemic) [Example 26 (racemic), 5-amino-1-(4-fluorophenyl)-N-{3,3,3-trifluoro-2-hydroxy-2-[(methyl{[3-(trifluoromethyl)phenyl]carbonyl}amino)methyl]propyl}-1H-pyrazole-4-carboxamide]	–	–	–	< 1000 nM	–
CN(CC(O)(CNC(=O)c1cnn(-c2ccc(F)cc2)c1N)C(F)(F)F)C(=O)c1ncccc1F (racemic) [Example 29 (racemic), N-{2-[({[5-amino-1-(4-fluorophenyl)-1H-pyrazol-4-yl]carbonyl}amino)methyl]-3,3,3-trifluoro-2-hydroxypropyl}-3-fluoro-N-methyl-2-pyridinecarboxamide]	–	–	–	–	< 1000 nM
CCN(CC(O)(CNC(=O)c1cnn(-c2ccccc2Cl)c1N)C(F)(F)F)C(=O)c1ccccc1 (racemic) [Example 36 (racemic), 5-amino-1-(2-chlorophenyl)-N-(2-{[ethyl(phenylcar-bonyl)amino]methyl}-3,3,3-trifluoro-2-hydroxypropyl)-1H-pyrazole-4-carboxamide]	–	–	–	< 1000 nM	–
CN(CC(O)(CNC(=O)c1cnn(-c2ccc(F)cc2)c1N)C(F)(F)F)C(=O)c1cccc2cccnc12 (racemic) [Example 42 (racemic), N-{2-[({[5-amino-1-(4-fluorophenyl)-1H-pyrazol-4-yl]carbonyl}amino)methyl]-3,3,3-trifluoro-2-hydroxypropyl}-N-methyl-8-quinolinecarboxamide]	≥ 40%	≥ 40%	< 316 nM	–	–
Nc1c(C(=O)NCC(O)(CN(CCF)C(=O)c2ccccc2)C(F)(F)F)cnn1-c1ccc(F)cc1 (single isomer, unassigned) [Example 1 Enantiomer 2, 5-Amino-1-(4-fluorophenyl)-N-(3,3,3-trifluoro-2-{[(2-fluoroethyl)(phenylcarbonyl)amino]methyl}-2-hydroxypropyl)-1H-pyrazole-4-carboxamide]	≥ 40%	≥ 40%	< 316 nM	–	–
CCN(CC(O)(CNC(=O)c1cnn(-c2ccc(F)cc2)c1N)C(F)(F)F)C(=O)c1ccccc1 (single isomer, unassigned) [Example 14 Enantiomer 2, 5-amino-N-(2-{[ethyl(phenylcar-bonyl)amino]methyl}-3,3,3-trifluoro-2-hydroxypropyl)-1-(4-fluorophenyl)-1H-pyrazole-4-carboxamide]	≥ 40%	≥ 40%	< 316 nM	–	< 1000 nM
